pIC50: −log10 of the molar value. Read-outs that look alike come from different tables or passages of the source.

The target in assay [1] is T1, GST-tagged PTPN2 protein (Homo sapiens, UniProt P17706).
T1 construct: purchased ActiveMotif 31592
Nature of the assay: Primary assay of PTPN2 enzymatic activity inhibition (DiFMUP fluorescence). It counts as biochemical. As to conditions: DiFMUP substrate 2 μM, 60 min at RT. On the procedure: Compound activity was determined using GST-tagged PTPN2 protein (Cat #31592, ActiveMotif) (SEQ ID NO: 1) in an in vitro enzymatic reaction. The enzymatic reaction was carried out in assay buffer (50 mM HEPES Na salt pH 7.2-7.4, 2 mM EDTA, 100 mM NaCl, 52 ng/μL BSA, and 6 mM DTT). The compounds were dispensed on a 384 well Diamond Well Plate (Axigen, Cat #P-384-120SQ-C-S) using the Biomek FX liquid handling system at 100× solutions of compounds in DMSO. 2× PTPN2 (final concentration 0.004 ng/μL) was prepared in 1× Assay buffer and 25 μL of mixture per well was added into Reaction plate (Optiplate, black, Perkin Elmer, Cat #6007270). Add 25 μL of 1× buffer to Ctrl- (Substrate w/o PTPN2) wells followed by centrifugation at 100 g for 1 min. Next step the Compounds were added to Reaction plate using Biomek station via following steps: 3 ul of 100× compounds (in DMSO) were mixed with 27 μL of Assay Buffer, then 5 μL of this mixture was added to Reaction plate with 25 μL of PTPN2 Mix. Plates were centrifuged for 1 min at 100 g and incubated for another 10 minutes at room temperature. Finally, 20 μL of 2.5× Substrate (DiFUMP, Invitrogen™ Cat #D6567) mix was added into appropriate wells of Reaction plate to the final concentration of 2 μM, plate was centrifuged at 100 g for 1 min followed by incubation at RT for 60 min, and the Fluorescence Intensity was measured using a Microplate Reader (ClarioStar Plus, excitation 360 nm, emission 450 nm). The % inhibition was then used to calculate the IC50 values. The IC50 values are shown in Table A1, wherein “A” corresponds to IC50<5.0 nm, “B” corresponds to 5.0 nm≤IC50<10.0 nm, “C” corresponds to 10.0 nm≤IC50<50.0 nm, “D” corresponds to 50.0 nm≤IC50<100.0 nm, and “E” corresponds to 100.0 nm≤IC50<500.0 nm, and “F” corresponds to 500.0 nm≤IC50.

Assay [2] deals with B16F10 mouse melanoma cells. Put plainly: Tumor cells B16F10 cellular growth IFNγ-induced inhibition assay (CellTiter-Glo). As to conditions: for pIC50: B16-F10, 72 h, 3 days incubation; for inhibition at 100 µM: B16-F10, B16F10, 100 μM compound; for inhibition at 40 µM: B16-F10, B16F10, 40 μM compound. It is filed as cell-based. On the procedure:
B16F10 mouse melanoma cells (ATCC Cat #CRL-6475) were seeded at a density of 500 cells per well in a 384-well clear bottom plate (Corning Cat #3712, Corning, N.Y.) in 40 μL total volume of DMEM+10% FBS (PanEco Cat #C420, Russia and Sigma Cat #F4135, St. Louis, Mo.). Cells were allowed to adhere overnight at 37° C., 5% CO2. On the following day, 250× solutions of compounds in DMSO (Sigma Cat #D2650) were prepared into […] plate (Diamond Well Plate, Axigen, Cat #P-384-120SQ-C-S) (final concentration of 1×) and DMSO only controls were included. Dilution Plate (Diamond Well Plate (Axigen, Cat #P-384-120SQ-C-S) was prepared by adding 49 μL of culture medium per well: half of the plate with culture medium only, half with culture medium+IFNγ (5 ng/ml). A 1 μL aliquot of 250× compounds ([…] plate) was added to 49 μL of culture medium (Dilution plate), then a 10 μL aliqut of the mixture was transferred to Reaction plate with 40 μL of cells followed by centrifugation at 240 g for 1 min. After 3 days of incubation, 10 μL of CellTiter-Glo (Promega) was added to the cells, plates were centrifuged at 240 g for 1 min, and luminescence signal was measured. For each compound, the percent growth inhibition at every compound dose level was calculated relative to the “DMSO/with IFNγ” control and used to determine the IC50.

[3] abbreviates: B16F10, + IFNγ, read-out: IC50 + IFNγ.
Setting [4] is: B16F10, no IFNγ, read-out: IC50 no IFNγ.
[5] abbreviates: + IFNγ, read-out: % Growth Inhibition at 100 μM + IFNγ.
Where [6] appears, read: no IFNγ, read-out: % Growth Inhibition at 100 μM no IFNγ.
The mark [7] stands for this setting: no IFNγ, read-out: % Growth Inhibition no IFNγ @ 40 μM.

T1 sequence (P17706 with tags, fused parts or gaps): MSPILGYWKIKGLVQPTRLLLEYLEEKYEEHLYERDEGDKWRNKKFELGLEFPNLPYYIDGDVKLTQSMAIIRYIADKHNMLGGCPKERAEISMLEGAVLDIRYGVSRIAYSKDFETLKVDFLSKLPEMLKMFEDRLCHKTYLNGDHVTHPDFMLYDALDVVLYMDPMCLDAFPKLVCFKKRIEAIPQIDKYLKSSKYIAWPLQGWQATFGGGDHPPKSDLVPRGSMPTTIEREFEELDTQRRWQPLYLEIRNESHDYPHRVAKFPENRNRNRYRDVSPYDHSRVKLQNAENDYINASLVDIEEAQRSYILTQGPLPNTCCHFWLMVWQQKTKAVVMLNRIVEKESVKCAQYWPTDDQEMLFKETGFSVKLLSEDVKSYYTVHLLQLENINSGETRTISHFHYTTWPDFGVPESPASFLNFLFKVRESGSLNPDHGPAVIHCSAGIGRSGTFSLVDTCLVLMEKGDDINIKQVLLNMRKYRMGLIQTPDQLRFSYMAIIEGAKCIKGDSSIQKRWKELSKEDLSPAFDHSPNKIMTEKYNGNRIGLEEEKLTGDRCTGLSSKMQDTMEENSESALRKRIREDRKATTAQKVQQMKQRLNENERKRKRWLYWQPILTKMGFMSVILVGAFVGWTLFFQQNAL

The pIC50 is the negative decadic logarithm of the IC50, by convention in mol/L. The term inhibition denotes the drop in the measured response relative to a control, in per cent. `O=C1CN(c2c(O)cc(-c3cccc(NC4CCN(S(=O)(=O)Cc5ccccc5Cl)CC4)c3)cc2F)S(=O)(=O)N1` [Example 11, 5-[3′-({1-[(2-chlorobenzyl)sulfonyl]piperidin-4-yl}amino)-3-fluoro-5-hydroxybiphenyl-4-yl]-1,2,5-thiadiazolidin-3-one 1,1-dioxide]: the values for the pIC50 in assay [1], in assay [2] (setting [3]) and in assay [2] (setting [4]) were 6.30 to 7.00, 4.00 to 4.30 and not above 4.00, respectively. For the same compound, the inhibition at 100 µM in assay [2] (setting [5]) is 50 to 75%; in assay [2] (setting [6]), 10 to 50%.
For `O=C1CN(c2c(O)cc(-c3cccc(NC4CCN(S(=O)(=O)Cc5ccccc5)CC4)c3)cc2F)S(=O)(=O)N1` [Example 12, 5-(3′-{[1-(benzylsulfonyl)piperidin-4-yl]amino}-3-fluoro-5-hydroxybiphenyl-4-yl)-1,2,5-thiadiazolidin-3-one 1,1-dioxide], the figures for the pIC50 in assay [1], in assay [2] (setting [3]) and in assay [2] (setting [4]) were 6.30 to 7.00, not above 4.00 and not above 4.00, respectively. In addition, the inhibition at 100 µM in assay [2] (setting [5]) and in assay [2] (setting [6]) was 10 to 50% in each case.
`O=C1CN(c2c(O)cc(NC(=O)c3ccccc3)cc2F)S(=O)(=O)N1` [Example 13, N-[4-(1,1-dioxido-4-oxo-1,2,5-thiadiazolidin-2-yl)-3-fluoro-5-hydroxyphenyl]benzamide]: the results for the pIC50 in assay [1], in assay [2] (setting [3]) and in assay [2] (setting [4]) were 6.30 to 7.00, not above 4.00 and not above 4.00, respectively. Also, the inhibition at 100 µM in assay [2] (setting [5]) and in assay [2] (setting [6]) was 10 to 50% throughout.
Consider `COc1ccc(C(=O)Nc2cc(O)c(N3CC(=O)NS3(=O)=O)c(F)c2)cc1OC` [Example 14, N-[4-(1,1-dioxido-4-oxo-1,2,5-thiadiazolidin-2-yl)-3-fluoro-5-hydroxyphenyl]-3,4-dimethoxybenzamide], for which the results for the pIC50 in assay [1], in assay [2] (setting [3]) and in assay [2] (setting [4]) were 6.30 to 7.00, 4.30 to 5.00 and not above 4.00, respectively. In addition, the inhibition at 100 µM in assay [2] (setting [5]) fell in the range of 50 to 75%; in assay [2] (setting [6]), 10 to 50%.
With `COc1ccc(C(=O)Nc2cc(O)c(N3CC(=O)NS3(=O)=O)c(F)c2)cc1` [Example 15, N-[4-(1,1-dioxido-4-oxo-1,2,5-thiadiazolidin-2-yl)-3-fluoro-5-hydroxyphenyl]-4-methoxybenzamide], the pIC50 is 6.30 to 7.00 in assay [1], 4.30 to 5.00 in assay [2] (setting [3]) and 4.30 to 5.00 in assay [2] (setting [4]). Moreover, the inhibition at 40 µM was in the range of 10 to 50% in assay [2] (+ IFNγ, read-out: % Growth Inhibition + IFNγ @ 40 μM) and 10 to 50% in assay [2] (setting [7]).
`CC(C)(C)c1ccc(C(=O)Nc2cc(O)c(N3CC(=O)NS3(=O)=O)c(F)c2)cc1` [Example 16, 4-tert-butyl-N-[4-(1,1-dioxido-4-oxo-1,2,5-thiadiazolidin-2-yl)-3-fluoro-5-hydroxyphenyl]benzamide]: the values for the pIC50 in assay [1], in assay [2] (setting [3]) and in assay [2] (setting [4]) were 6.30 to 7.00, not above 4.00 and not above 4.00, respectively. Also, the inhibition at 100 µM in assay [2] (setting [5]) and in assay [2] (setting [6]) was 10 to 50% throughout.
For `O=C1CN(c2c(O)cc(NS(=O)(=O)c3ccccc3)cc2F)S(=O)(=O)N1` [Example 17, N-[4-(1,1-dioxido-4-oxo-1,2,5-thiadiazolidin-2-yl)-3-fluoro-5-hydroxyphenyl]benzenesulfonamide], the pIC50 in assay [1] was 7.30 to 8.00; in assay [2] (setting [3]), 4.30 to 5.00; in assay [2] (setting [4]), 4.30 to 5.00. Further, the inhibition at 40 µM in assay [2] (setting [7]) fell in the range of 10 to 50%.
Regarding `Cc1ccc(S(=O)(=O)Nc2cc(O)c(N3CC(=O)NS3(=O)=O)c(F)c2)cc1` [Example 18, N-[4-(1,1-dioxido-4-oxo-1,2,5-thiadiazolidin-2-yl)-3-fluoro-5-hydroxyphenyl]-4-methylbenzenesulfonamide], the negative-log IC50 (pIC50) in assay [1] is 7.30 to 8.00; in assay [2] (setting [3]) it was 4.00 to 4.30; in assay [2] (setting [4]) it was not above 4.00. For the same compound, the inhibition at 100 µM was in the range of 50 to 75% in assay [2] (setting [5]) and 10 to 50% in assay [2] (setting [6]).

Values taken from patent publication US20240262801A1, “COMPOUNDS HAVING 5-(2-FLUORO-6-HYDROXYPHENYL)-1,2,5-THIADIAZOLIDIN-3-ONE 1,1-DIOXIDE AS INHIBITORS OF PROTEIN KINASE PHOSPHATASE ENZYMES” (Ness Therapeutics, Inc., priority 2021, published 2024).
